Test results reported in publication PMC11233931, “Remodeling tumor‐associated macrophage for anti‐cancer effects by rational design of irreversible inhibition of mitogen‐activated protein kinase‐activated protein kinase 2” (MedComm, 2024).

Assays:
MK5 = target: T1, MK5 (Homo sapiens, UniProt Q8IW41); assay: Eurofins kinase selectivity profile, MK5; format: biochemical
T1 construct: purchased Eurofins (Celle Lévescault)
T1 sequence (Q8IW41 1-473): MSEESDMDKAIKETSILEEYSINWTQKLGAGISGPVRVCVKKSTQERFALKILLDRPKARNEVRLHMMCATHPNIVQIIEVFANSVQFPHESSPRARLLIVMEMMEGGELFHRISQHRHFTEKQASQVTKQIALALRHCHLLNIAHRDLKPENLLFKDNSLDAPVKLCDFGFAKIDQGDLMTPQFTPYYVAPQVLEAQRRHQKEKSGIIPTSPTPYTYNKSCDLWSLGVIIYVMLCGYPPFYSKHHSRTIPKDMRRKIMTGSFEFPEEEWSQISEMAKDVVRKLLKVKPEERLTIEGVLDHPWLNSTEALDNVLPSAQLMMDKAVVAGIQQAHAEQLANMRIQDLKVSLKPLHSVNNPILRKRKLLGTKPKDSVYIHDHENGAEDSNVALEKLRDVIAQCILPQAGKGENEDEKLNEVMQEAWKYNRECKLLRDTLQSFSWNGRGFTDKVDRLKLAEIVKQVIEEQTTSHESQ
Description: Subsequently, to ascertain whether the high potency of compound 11 was specific for MK2, an additional 380 human recombinant protein kinases were screened.
To assess the impact of various compounds on MK2 kinase activity, we utilized the ADP‐Glo Assay Kit (Promega) following the manufacturer's instructions. Luminescence measurements were taken using a SpectraMax Paradigm reader. The inhibition percentage was calculated using the following formula: ((specific signalDMSO control − specific signal inhibitor)/(specific signalDMSO control)) × 100%. The IC50 values were determined employing dose–response curve fitting via Prism (Graph Pad). Additionally, Eurofins company (Celle Lévescault) conducted the analysis on compound 11’s inhibitory activity against 380 other human recombinant kinases at various concentrations.

[1] = tested on: MRC1 and ARG-1 mRNA in THP-1 monocyte induced macrophages; assay: RT-PCR of M2 markers in IL-4/IL-13 stimulated THP-1 macrophages; format: cell-based, human; settings: IL-4/IL-13 20 ng/mL
Text: A previous study has reported that MK2 fostered M2‐like polarization of TAMs, driving a protumor and proangiogenic phenotype which in turn accelerates tumor progression.[21] We thus assessed the influence of compound 11 on macrophage polarization and function. Our experiments used human THP‐1 monocyte induced macrophages, mouse RAW264.7 macrophages, and mouse bone marrow‐derived macrophages (BMDM). These cells were induced into M2‐like macrophages using the classic IL‐4 and IL‐13 stimuli.
FIGURE 5 Inhibition of pro‐tumorigenic M2‐like polarization in macrophages by compound 11. (A–C) RT‐PCR analysis highlights the impact of compound 11 on MRC1 and ARG‐1 mRNA expression in various macrophage cells treated with IL‐4/IL‐13 alone or combined with compound 11 for 12 h or 24 h. […] Data are shown as the mean ± SD. ^* p < 0.05; ^*** p < 0.001 versus the vehicle group, determined by unpaired t test. […]
(§1) Total RNA was extracted from cultured cells using the EZ‐press RNA Purification Kit (EZBioscience). Complementary DNA was synthesized using the ABScript III RT Master Mix for qPCR with gDNA remover (ABclonal Technology) and was quantified with primers listed in Table S5. The relative mRNA expression levels were quantified through qPCR using the SYBR green gene expression assay (ABclonal Technology).

VEGF mRNA in THP-1 cells = assay: RT-PCR of VEGF in IL-4/IL-13 stimulated THP-1 cells; format: cell-based, human; settings: IL-4/IL-13, 12 h
Text: Following this line of investigation, we employed siRNA for the transient knockdown of MK2 in THP‐1 monocyte‐ differentiated macrophages. […] M2 macrophages play a pivotal role in promoting tumor angiogenesis through the secretion of critical factors like VEGF, which facilitate tumor neovascularization.[17] […] These findings further validate the significance of MK2 in the M2 polarization of macrophages and illustrate how compound 11, by targeting MK2, suppresses the pro‐tumorigenic phenotype of macrophages.
as §1
Figure S3 Inhibition of pro-tumorigenic M2-like polarization in macrophages by compound 11. (A) Illustrates the treatment effects on various macrophage cells using Western blot analysis post IL-4/IL-13 exposure (30 minutes or the specified time period). (B) Examines CD206 expression in RAW264.7 cells via flow cytometry post 48hours treatment of compound 11 and IL-4/IL-13. […] IL-4/IL-13 (20 ng/mL) served as the stimulation control, while untreated cells were the baseline control. […]

[2] = Cell viability assay (CCK-8), MC38; format: cell-based; settings: mouse, MC38 cells (colorectal carcinoma), MC38, murine colorectal carcinoma, read-out: IC50 (μM) mean ± SD, cytotoxicity
Description: (§2) In cellular experiments, cells are seeded into either 6-well or 96-well plates and incubated overnight, proceeding with treatments as described in the figure legends or methods section. The cell inoculation numbers are outlined as follows: For assays measuring cell viability, between 3,000 to 5,000 cells are seeded per well in 96-well plates. For other cellular assays, the seeding density ranges from 5×10^5 to 1×10^6 cells per well in 6-well plates.
(§3) Cells was plated into 96-well plates and incubated overnight prior to introduction of varying concentrations of compounds or control solvent. Following a 72-hour exposure period, cell viability was determined using a Cell Counting Kit-8 assay (Life-iLab, China). Dose-response curves were fitted using a four-parameter method facilitated by SoftMax Pro, which was subsequently used for the computation of IC50 values.

[3] = Cell viability assay (CCK-8), H1437; format: cell-based; settings: H1437 cells (non-small cell lung carcinoma), H1437, human non-small cell lung carcinoma, read-out: IC50 (μM) mean ± SD, cytotoxicity
Description: as §2, §3

Which IC50 (MK5) does the source give for `C=CC(=O)Nc1cc(-c2cc(-c3cc4c([nH]3)CCNC4=O)ccn2)ccc1OC(F)(F)F` [compound 11] here?
Its IC50 is over 100 nM.

What about the inhibition at 0.001 µM (MK5; MAPKAP-K5/PRAK(h), 1 nM, read-out: Inhibition rate) of the same compound?
Its inhibition at 0.001 µM is -21%.

What about the inhibition at 0.01 µM (MK5; MAPKAP-K5/PRAK(h), 10 nM, read-out: Inhibition rate) of the same compound?
The inhibition at 0.01 µM was 6%.

What about the inhibition at 0.1 µM (MK5; MAPKAP-K5/PRAK(h), 100 nM, read-out: Inhibition rate) of the same compound?
Its inhibition at 0.1 µM is 29%.

And the “effect on transcriptional level of MRC1 and ARG-1” value [1]?
Its value is “significantly suppressed”.

And the “effect on relative mRNA level of VEGF” value (VEGF mRNA in THP-1 cells)?
Its value is “inhibited”.

And the IC50 at 72 h [2]?
The IC50 at 72 h was 48.3 ± 10.5 µM.

And the IC50 at 72 h [3]?
The IC50 at 72 h was 33.4 ± 0.6 µM.
